Data as given in US8722849B2, “Polypeptides” (Novo Nordisk A/S, priority 2011, dated 2014).
Starred links: 1 amine or outer side, 2 acyl side, 3 side chain; linkers in the order of their positions; H or OH if unused. Positions of bridges follow the written chain, without caps; N, C: chain ends. Residues, ends and D or L forms follow the SMILES beside them. *: point of attachment. C20 diacid = O=C(O)CCCCCCCCCCCCCCCCCCC(=O)*; γGlu = O=C(O)[C@H](CCC(=O)[*:2])N[*:1]

Assays:
food intake = assay: Assay (I) efficacy testing on appetite (food intake), ad libitum fed rat model; format: in vivo, Sprague Dawley (SD) rats
Description: In the following examples reference is made to the following Assays: • Assay (I)— Experimental protocol for efficacy testing on appetite using an ad libitum fed rat model • ASSAY (II)a—Functional assay—Human calcitonin and amylin receptor assay • ASSAY (II)b—Functional assay—Rat calcitonin and rat amylin receptor assays • ASSAY (III)—ThT fibrillation assays for the assessment of physical stability of protein formulations • ASSAY (IV)—Determination of solubility • ASSAY (V)—Determination of binding to the human amylin receptor • ASSAY (VI)—Determination of the binding to the rat amylin receptor • ASSAY (VII)—Determination of binding to the human calcitonin receptor • ASSAY (VIII)—Determination of binding to the rat calcitonin receptor • ASSAY (IX)—pK—Determination of T % in mini-pig • ASSAY (X)—pK—Determination of T % in rat ASSAY (I)—Experimental Protocol for Efficacy Testing on Appetite Using an Ad Libitum Fed Rat Model
Sprague Dawley (SD) rats from Taconic Europe, Denmark are used for the experiments. The rats have a body weight 200-250 g at the start of experiment. The rats arrive at least 10-14 days before start of experiment to allow acclimatization to experimental settings. During this period the animals are handled at least 2 times. After arrival rats are housed individually for one week in a reversed light/dark phase (meaning that lights are off during daytime and on during nighttime) […]. Since rats are normally active and eat their major part of their daily food intake during the dark period, rats are dosed in the morning right before lights are turned off. This set-up results in the lowest data variation and highest test sensitivity. The experiment is conducted in the rats' home cages and rats have free access to food and water throughout the acclimatization period and the experiment period. Each dose of derivative is tested in a group of 5-8 rats. A vehicle group of 6-8 rats is included in each set of testing. Rats are dosed once according to body weight with a 0.01-3 mg/kg solution administered intraperitoneally (ip), orally (po) or subcutaneously (sc). The time of dosing is recorded for each group. After dosing, the rats are returned to their home cages, where they then have access to food and water. The food consumption is recorded individually continuously by on-line registration or manually every hour for 7 hours, and then after 24 h and sometimes 48 h. At the end of the experimental session, the animals are euthanised.
The individual data are recorded in Microsoft excel sheets. Outliers are excluded after applying the Grubbs statistical evaluation test for outliers, and the result is presented graphically using the GraphPad Prism program.

[1] = Assay (III) ThT fibrillation assay for physical stability; format: physicochemical
Summary of the method: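 Freshly prepared formulations, pH-adjusted, with 1 μM ThT; four or eight replicates incubated at 37 °C under 960 rpm orbital shaking. Fluorescence (ex 444/em 485 nm) read every 20 min; […]. Peptide concentration measured by RP-HPLC before and after the run.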

ThT pH 4.0 lag time (h) ([1]; ThT fibrillation assay) | ThT pH 4.0 lag time ([1]; Table 8) | ThT pH 4.0 lag time ([1]; ThT fibrillation assay) | ThT pH 4.0 lag time ([1]; Table 9) | Structure (SMILES) | Food intake reduction 0-24 h 30 nmol/kg (%) (food intake; 0-24 h, 30 nmol/kg) | Food intake reduction 24-48 h 30 nmol/kg (%) (food intake; 24-48 h, 30 nmol/kg) | Food intake reduction 0-24 h 3 nmol/kg (%) (food intake; 0-24 h) | Food intake reduction 24-48 h 3 nmol/kg (%) (food intake; 24-48 h)
7.4 h | – | – | – | CC[C@H](C)[C@H](NC(=O)[C@@H]1CCCN1C(=O)CNC(=O)[C@H](Cc1ccccc1)NC(=O)[C@H](CC(N)=O)NC(=O)[C@H](CC(N)=O)NC(=O)[C@H](CO)NC(=O)[C@H](CO)NC(=O)[C@H](Cc1c[nH]cn1)NC(=O)[C@H](Cc1c[nH]cn1)NC(=O)[C@H](CC(C)C)NC(=O)[C@H](Cc1ccccc1)NC(=O)[C@H](CCC(=O)O)NC(=O)[C@H](C)NC(=O)[C@H](CC(C)C)NC(=O)[C@H](CCCNC(=N)N)NC(=O)[C@H](CCC(N)=O)NC(=O)[C@@H](NC(=O)[C@H](C)NC(=O)[C@@H]1CSSC[C@H](NC(=O)[C@H](Cc2c[nH]cn2)NC(=O)[C@H](Cc2c[nH]cn2)NC(=O)[C@H](Cc2c[nH]cn2)NC(=O)CC[C@H](NC(=O)CCCCCCCCCCCCCCCCCCC(=O)O)C(=O)O)C(=O)N[C@@H](CC(N)=O)C(=O)N[C@@H]([C@@H](C)O)C(=O)N[C@@H](C)C(=O)N[C@@H]([C@@H](C)O)C(=O)N1)[C@@H](C)O)C(=O)N[C@@H](CC(C)C)C(=O)N1CCC[C@H]1C(=O)N1CCC[C@H]1C(=O)N[C@H](C(=O)N[C@@H](CC(N)=O)C(=O)N[C@H](C(=O)NCC(=O)N[C@@H](CO)C(=O)N[C@@H](CC(N)=O)C(=O)N[C@H](C(=O)N[C@@H](Cc1ccc(O)cc1)C(N)=O)[C@@H](C)O)C(C)C)[C@@H](C)O [Example 11, N-alpha-[(S)-4-Carboxy-4-(19-carboxynonadecanoylamino)butyryl]-His-His-[His1,Glu14,His17]-pramlintide] ({C20 diacid-γGlu}-HHHCNTATCATQRLAEFLHHSSNNFGPILPPTNVGSNTY-NH2; disulfide 4-9 (inferred)) | 87% | 92% | – | –
25.6 h | 25.6 h | 25.6 h | – | CC[C@H](C)[C@H](NC(=O)[C@@H]1CCCN1C(=O)CNC(=O)[C@H](Cc1ccccc1)NC(=O)[C@H](CC(N)=O)NC(=O)[C@H](CC(N)=O)NC(=O)[C@H](CO)NC(=O)[C@H](CO)NC(=O)[C@H](Cc1c[nH]cn1)NC(=O)[C@H](Cc1c[nH]cn1)NC(=O)[C@H](CC(C)C)NC(=O)[C@H](Cc1ccccc1)NC(=O)[C@H](CCC(=O)O)NC(=O)[C@H](C)NC(=O)[C@H](CC(C)C)NC(=O)[C@H](CCCNC(=N)N)NC(=O)[C@H](CCC(N)=O)NC(=O)[C@@H](NC(=O)[C@H](C)NC(=O)[C@@H]1CSSC[C@H](NC(=O)[C@H](Cc2c[nH]cn2)NC(=O)CC[C@H](NC(=O)CCCCCCCCCCCCCCCCCCC(=O)O)C(=O)O)C(=O)N[C@@H](CC(N)=O)C(=O)N[C@@H]([C@@H](C)O)C(=O)N[C@@H](C)C(=O)N[C@@H]([C@@H](C)O)C(=O)N1)[C@@H](C)O)C(=O)N[C@@H](CC(C)C)C(=O)N1CCC[C@H]1C(=O)N1CCC[C@H]1C(=O)N[C@H](C(=O)N[C@@H](CC(N)=O)C(=O)N[C@H](C(=O)NCC(=O)N[C@@H](CO)C(=O)N[C@@H](CC(N)=O)C(=O)N[C@H](C(=O)N1CCC[C@H]1C(N)=O)[C@@H](C)O)C(C)C)[C@@H](C)O [Example 84, N-alpha-[(S)-4-Carboxy-4-(19-carboxynonadecanoylamino)butyryl]-[His1,Glu14,His17,Pro37]-pramlintide] ({C20 diacid-γGlu}-HCNTATCATQRLAEFLHHSSNNFGPILPPTNVGSNTP-NH2; disulfide 2-7 (inferred); C-terminus assumed) | – | – | 68% | 67%
30.3 h | – | 30.3 h | – | CC[C@H](C)[C@H](NC(=O)[C@@H]1CCCN1C(=O)CNC(=O)[C@H](Cc1ccccc1)NC(=O)[C@H](CC(N)=O)NC(=O)[C@H](CC(N)=O)NC(=O)[C@H](CO)NC(=O)[C@H](CO)NC(=O)[C@H](Cc1c[nH]cn1)NC(=O)[C@H](Cc1c[nH]cn1)NC(=O)[C@H](CC(C)C)NC(=O)[C@H](Cc1ccccc1)NC(=O)[C@H](CCC(=O)O)NC(=O)[C@H](C)NC(=O)[C@H](CC(C)C)NC(=O)[C@H](CCCNC(=N)N)NC(=O)[C@H](CCC(N)=O)NC(=O)[C@@H](NC(=O)[C@H](C)NC(=O)[C@@H]1CSSC[C@H](NC(=O)[C@H](Cc2c[nH]cn2)NC(=O)[C@H](Cc2c[nH]cn2)NC(=O)CC[C@H](NC(=O)CCCCCCCCCCCCCCCCCCC(=O)O)C(=O)O)C(=O)N[C@@H](CC(N)=O)C(=O)N[C@@H]([C@@H](C)O)C(=O)N[C@@H](C)C(=O)N[C@@H]([C@@H](C)O)C(=O)N1)[C@@H](C)O)C(=O)N[C@@H](CC(C)C)C(=O)N1CCC[C@H]1C(=O)N1CCC[C@H]1C(=O)N[C@H](C(=O)N[C@@H](CC(N)=O)C(=O)N[C@H](C(=O)NCC(=O)N[C@@H](CO)C(=O)N[C@@H](CC(N)=O)C(=O)N[C@H](C(=O)N[C@@H](Cc1ccc(O)cc1)C(N)=O)[C@@H](C)O)C(C)C)[C@@H](C)O [Example 17, N-alpha-[(S)-4-Carboxy-4-(19-carboxynonadecanoylamino)butyryl]-His-[His1,Glu14,His17]-pramlintide] ({C20 diacid-γGlu}-HHCNTATCATQRLAEFLHHSSNNFGPILPPTNVGSNTY-NH2; disulfide 3-8 (inferred); C-terminus assumed) | – | – | 40% | 22%
>45 h | >45 h | >45 h | >45 h | CC[C@H](C)[C@H](NC(=O)[C@@H]1CCCN1C(=O)CNC(=O)[C@H](Cc1ccccc1)NC(=O)[C@H](CO)NC(=O)[C@H](CO)NC(=O)[C@H](CO)NC(=O)[C@H](CO)NC(=O)[C@H](CCCNC(=N)N)NC(=O)[C@H](Cc1c[nH]cn1)NC(=O)[C@H](CC(C)C)NC(=O)[C@H](Cc1ccccc1)NC(=O)[C@H](CCC(=O)O)NC(=O)[C@H](C)NC(=O)[C@H](CC(C)C)NC(=O)[C@H](CCCNC(=N)N)NC(=O)[C@H](CCC(N)=O)NC(=O)[C@@H](NC(=O)[C@H](C)NC(=O)[C@@H]1CSSC[C@H](NC(=O)[C@H](Cc2c[nH]cn2)NC(=O)CC[C@H](NC(=O)CCCCCCCCCCCCCCCCCCC(=O)O)C(=O)O)C(=O)N[C@@H](CC(N)=O)C(=O)N[C@@H]([C@@H](C)O)C(=O)N[C@@H](C)C(=O)N[C@@H]([C@@H](C)O)C(=O)N1)[C@@H](C)O)C(=O)N[C@@H](CC(C)C)C(=O)N1CCC[C@H]1C(=O)N1CCC[C@H]1C(=O)N[C@H](C(=O)N[C@@H](CC(=O)O)C(=O)N[C@H](C(=O)NCC(=O)N[C@@H](CO)C(=O)N[C@@H](CC(=O)O)C(=O)N[C@H](C(=O)N[C@@H](Cc1ccc(O)cc1)C(N)=O)[C@@H](C)O)C(C)C)[C@@H](C)O [Example 9, N-alpha-[(S)-4-Carboxy-4-(19-carboxynonadecanoylamino)butyryl]-[His1,Glu14,His17,Arg18,Ser21,Ser22,Asp31,Asp35]-pramlintide] ({C20 diacid-γGlu}-HCNTATCATQRLAEFLHRSSSSFGPILPPTDVGSDTY-NH2; disulfide 2-7 (inferred); C-terminus assumed) | – | – | 39% | 32%
